Measurements taken from US20090317466A1, “Fixed dose pharmaceutical composition comprising hyroxyurea and didanosine” (priority 2008, published 2009).

Experiment: Stability of hydroxyurea on removal of citric acid from the composition
Format: physicochemical
Conditions: removal of the stabilizer citric acid from the composition
From the text: The commercially available hydroxyurea tablets contain citric acid.

NC(=O)NO [hydroxyurea]
stability of hydroxyurea: not significantly affected
